Results reported in ChEMBL document CHEMBL6182942, “Discovery of a Selective, Novel TGF-βR1 Inhibitor GFH018 for the Treatment of Solid Tumors” (J Med Chem, 2025).

Experiments:
[1] = molecular target: T1, TGF-beta receptor type-1 (Homo sapiens, UniProt P36897); assay: Inhibition of TGFbetaR1 (unknown origin) in presence of ATP
T1 sequence (P36897 whole entry): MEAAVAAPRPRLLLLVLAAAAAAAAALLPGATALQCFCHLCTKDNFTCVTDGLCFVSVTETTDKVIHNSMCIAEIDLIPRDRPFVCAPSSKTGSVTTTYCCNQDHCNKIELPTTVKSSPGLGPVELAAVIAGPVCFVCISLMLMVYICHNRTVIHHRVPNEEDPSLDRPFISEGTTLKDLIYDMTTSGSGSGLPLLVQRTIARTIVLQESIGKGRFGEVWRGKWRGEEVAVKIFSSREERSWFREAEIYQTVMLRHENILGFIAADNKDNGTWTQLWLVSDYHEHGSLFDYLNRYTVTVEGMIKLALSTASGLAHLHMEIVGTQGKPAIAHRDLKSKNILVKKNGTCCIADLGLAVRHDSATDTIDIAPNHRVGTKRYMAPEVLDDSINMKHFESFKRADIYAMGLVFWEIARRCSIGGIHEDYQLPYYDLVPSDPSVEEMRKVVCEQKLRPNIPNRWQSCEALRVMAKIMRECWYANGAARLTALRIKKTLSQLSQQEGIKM

[2] = molecular target: Mitogen-activated protein kinase 14 (Homo sapiens, UniProt Q16539); assay: Inhibition of p38alpha (unknown origin) measured after 40 mins in presence of [gamma-33P]ATP by microbeta liquid scintillation counting analysis; type: toxicity
Sequence of Mitogen-activated protein kinase 14 (Q16539 whole entry): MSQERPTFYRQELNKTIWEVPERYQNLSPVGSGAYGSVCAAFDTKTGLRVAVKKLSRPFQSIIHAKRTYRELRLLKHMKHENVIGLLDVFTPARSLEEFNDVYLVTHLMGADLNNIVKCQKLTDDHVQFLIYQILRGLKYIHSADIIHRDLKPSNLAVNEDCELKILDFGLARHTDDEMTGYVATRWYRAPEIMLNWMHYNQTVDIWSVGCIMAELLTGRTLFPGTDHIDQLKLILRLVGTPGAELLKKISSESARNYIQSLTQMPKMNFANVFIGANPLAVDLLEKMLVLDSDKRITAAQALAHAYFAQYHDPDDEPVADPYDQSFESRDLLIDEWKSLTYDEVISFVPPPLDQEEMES

[3] = test system: NIH3T3; assay: Antiproliferative activity against mouse NIH/3T3 cells by celltitter-glo assay; type: functional, cell-based
[4] = Metabolic stability in human liver microsomes assessed as parent compound remaining at 1 uM preincubated for 5 mins followed by NADPH addition by LC-MS/MS analysis; type: ADME, Microsome; conditions: read-out: Stability
[5] = Metabolic stability in mouse liver microsomes assessed as parent compound remaining at 1 uM preincubated for 5 mins followed by NADPH addition by LC-MS/MS analysis; type: ADME, Microsome; conditions: read-out: Stability
[6] = Apparent permeability across apical to basolateral side in dog MDCK-MDR1 cells at 2 uM measured over 150 mins by LC-MS/MS analysis; type: ADME, cell-based, Canis lupus familiaris
[7] = Clearance in CD-1 mouse at 1 mg/kg, iv by LC-MS/MS analysis; type: ADME, organism-based; conditions: in vivo
[8] = Half life in CD-1 mouse at 1 mg/kg, iv by LC-MS/MS analysis; type: ADME, organism-based; conditions: in vivo
[9] = Volume of distribution at steady state in CD-1 mouse at 1 mg/kg, iv by LC-MS/MS analysis; type: ADME, organism-based; conditions: in vivo, read-out: Vdss
[10] = Half life in CD-1 mouse at 5 mg/kg, po via gavage by LC-MS/MS analysis; type: ADME, organism-based; conditions: in vivo
[11] = Cmax in CD-1 mouse at 5 mg/kg, po via gavage by LC-MS/MS analysis; type: ADME, organism-based; conditions: in vivo
[12] = AUC (0 to last) in CD-1 mouse at 5 mg/kg, po via gavage by LC-MS/MS analysis; type: ADME, organism-based; conditions: in vivo
[13] = Oral bioavailability in CD-1 mouse at 5 mg/kg via gavage by LC-MS/MS analysis; type: ADME, organism-based; conditions: in vivo
[14] = test system: MDR1; assay: Efflux ratio of apparent permeability in dog MDCK-MDR1 cells at 2 uM measured over 150 mins by LC-MS/MS analysis; type: ADME, cell-based, Canis lupus familiaris
[15] = species on record: Homo sapiens; assay: Selectivity ratio of IC50 for p38alpha (unknown origin) to IC50 for TGFbetaR1 (unknown origin)

IC50 [1] | Ratio IC50 [15] | Compound | IC50 [2] | also measured
83 nM | – | Cc1cccc(-c2nn3c(c2-c2ccc4ncnn4c2/C=C/C(C)(C)O)CCC3)n1 | > 10000 nM | IC50 [3]: 1620 nM; remaining at 1 µM [4]: 54.8%; remaining at 1 µM [5]: 7.8%; Papp A→B at 2.5 h, 2 µM [6]: 8.48 ×10⁻⁶ cm/s; clearance [7]: 105 mL/min/kg; half-life [8]: 7.74 min; Vd [9]: 0.849 L/kg; half-life [10]: 50.5 min; Cmax [11]: 170 nM/ml; AUClast [12]: 104 nM.hr/ml; bioavailability [13]: 5.48%; efflux ratio at 2.5 h, 2 µM [14]: 6.12
136 nM | 11.6 | Cc1cccc(-c2nn3c(c2-c2ccc4ncnn4c2/C=C/C(N)=O)CCCC3)n1 | 1580 nM | –
76.8 nM | – | Cc1cccc(-c2nn3c(c2-c2ccc4ncnn4c2/C=C/C(=O)O)CCC3)n1 | – | Papp A→B at 2.5 h, 2 µM [6]: 0.43 ×10⁻⁶ cm/s; efflux ratio at 2.5 h, 2 µM [14]: 1.46
312 nM | 15.2 | CCNC(=O)/C=C/c1c(-c2c(-c3cccc(C)n3)nn3c2CCC3)ccc2ncnn12 | 4750 nM | –
324 nM | – | CCOC(=O)/C=C/c1c(-c2c(-c3cccc(C)n3)nn3c2CCC3)ccc2ncnn12 | 5910 nM | Papp A→B at 2.5 h, 2 µM [6]: 19.4 ×10⁻⁶ cm/s
365 nM | > 27.4 | Cc1cccc(-c2nn3c(c2-c2ccc4ncnn4c2CNc2cc[nH]n2)CCC3)n1 | > 10000 nM | –
4290 nM | – | Cc1cccc(-c2nn3c(c2-c2ccc4ncnn4c2C(N)=O)CCC3)n1 | – | –
> 5000 nM | – | Cc1cccc(-c2nn3c(c2-c2ccc4ncnn4c2CN2CC(O)C2)CCC3)n1 | – | –
> 5000 nM | – | Cc1cccc(-c2nn3c(c2-c2ccc4ncnn4c2CN2CCNC(=O)C2)CCC3)n1 | – | –
248 nM | > 13 | CNC(=O)/C=C/c1c(-c2c(-c3cccc(C)n3)nn3c2CCC3)ccc2ncnn12 | > 3330 nM | –
281 nM | 24.6 | Cc1cccc(-c2nn3c(c2-c2ccc4ncnn4c2/C=C/C(=O)NCCO)CCC3)n1 | 6900 nM | –
41.2 nM | > 80 | Cc1cccc(-c2nn3c(c2-c2ccc4ncnn4c2/C=C/C(=O)NO)CCC3)n1 | > 3330 nM | remaining at 1 µM [4]: 42.5%; remaining at 1 µM [5]: 41.6%; Papp A→B at 2.5 h, 2 µM [6]: 0.15 ×10⁻⁶ cm/s; efflux ratio at 2.5 h, 2 µM [14]: 43.4
928 nM | – | Cc1cccc(-c2nn3c(c2-c2ccc4ncnn4c2CCC(N)=O)CCC3)n1 | – | –

Continued, compound first:

Compound | IC50 [1] | Ratio IC50 [15] | IC50 [2] | also measured
Cc1nc(-c2nn3c(c2-c2ccc4ncnn4c2/C=C/C(N)=O)CCC3)ccc1Cl | 4890 nM | – | – | –
Cc1cc(C)nc(-c2nn3c(c2-c2ccc4ncnn4c2/C=C/C(N)=O)CCC3)c1 | 3240 nM | – | – | –
Cc1cccc(-c2nn3c(c2-c2ccc4ncsc4c2/C=C/C(N)=O)CCC3)n1 | 207 nM | 2.3 | 476 nM | –
Cc1cccc(-c2nn3c(c2-c2cn(C)c(=O)c4ccc(C(N)=O)cc24)CCC3)n1 | > 5000 nM | – | – | –
Cc1cccc(-c2nn(C(C)C)cc2-c2ccc3ncnn3c2/C=C/C(N)=O)n1 | 423 nM | – | – | –
Cc1cccc(-c2nn3c(c2-c2ccc4nccn4c2/C=C/C(N)=O)CCC3)n1 | 1020 nM | – | – | –
Cc1cccc(-c2nn(Cc3cccc(C#N)c3)cc2-c2ccc3ncnn3c2C=CC(N)=O)n1 | 223 nM | – | > 3330 nM | IC50 [3]: 1660 nM; remaining at 1 µM [4]: 56.2%; remaining at 1 µM [5]: 9.8%
CCc1cccc(-c2nn3c(c2-c2ccc4ncnn4c2/C=C/C(N)=O)CCC3)n1 | 420 nM | 12.8 | 5380 nM | –
Cc1cccc(-c2nn(C3CCCC3)cc2-c2ccc3ncnn3c2/C=C/C(N)=O)n1 | 276 nM | – | – | –
Cc1cccc(-c2nn(C)c(C)c2-c2ccc3ncnn3c2/C=C/C(N)=O)n1 | 253 nM | > 40 | > 10000 nM | –
Cc1cccc(-c2nn3c(c2-c2ccnc4ccc(C(N)=O)cc24)CCC3)n1 [GALUNISERTIB] | – | – | 783 nM | –
Cc1cccc(-c2nn3c(c2-c2ccnc(-c4cccc(C(N)=O)c4)c2)CCC3)n1 | 3460 nM | – | – | –
Cc1cccc(-c2nn3c(c2-c2ccc4ncnn4c2/C=C/C(=O)NC2CC2)CCC3)n1 | 279 nM | 18.6 | 5210 nM | –
Cc1cccc(-c2nn3c(c2-c2ccnc(Nc4ccc(S(N)(=O)=O)cc4)c2)CCC3)n1 | 82.6 nM | 0.2 | 15 nM | –
Cc1cccc(-c2nn3c(c2-c2ccc4ncccc4c2/C=C/C(N)=O)CCC3)n1 | 971 nM | – | – | –
Cc1cccc(-c2nn3c(c2-c2ccc(F)c4c2CN(C(N)=O)CC4)CCC3)n1 | > 5000 nM | – | – | –
Cc1cccc(-c2nn3c(c2-c2ccnc4c2CN(C(N)=O)CC4)CCC3)n1 | > 5000 nM | – | – | –
Cc1cccc(-c2nn3c(c2-c2ccnc(NC4CCN(C(N)=O)CC4)c2)CCC3)n1 | > 5000 nM | – | – | –
Cc1cccc(-c2nn3c(c2-c2ccnc(Nc4ccc(C(N)=O)cc4)c2)CCC3)n1 | 90.9 nM | 0.3 | 26 nM | –
Cc1cccc(-c2nn(Cc3cccc(C(F)F)c3)cc2-c2ccc3ncnn3c2/C=C/C(N)=O)n1 | 164 nM | – | 2050 nM | IC50 [3]: 900 nM; remaining at 1 µM [4]: 9.5%; remaining at 1 µM [5]: 0%
